The target in series [1] is T1, Androgen receptor (Homo sapiens) (UniProt P10275).
T1 sequence (whole entry): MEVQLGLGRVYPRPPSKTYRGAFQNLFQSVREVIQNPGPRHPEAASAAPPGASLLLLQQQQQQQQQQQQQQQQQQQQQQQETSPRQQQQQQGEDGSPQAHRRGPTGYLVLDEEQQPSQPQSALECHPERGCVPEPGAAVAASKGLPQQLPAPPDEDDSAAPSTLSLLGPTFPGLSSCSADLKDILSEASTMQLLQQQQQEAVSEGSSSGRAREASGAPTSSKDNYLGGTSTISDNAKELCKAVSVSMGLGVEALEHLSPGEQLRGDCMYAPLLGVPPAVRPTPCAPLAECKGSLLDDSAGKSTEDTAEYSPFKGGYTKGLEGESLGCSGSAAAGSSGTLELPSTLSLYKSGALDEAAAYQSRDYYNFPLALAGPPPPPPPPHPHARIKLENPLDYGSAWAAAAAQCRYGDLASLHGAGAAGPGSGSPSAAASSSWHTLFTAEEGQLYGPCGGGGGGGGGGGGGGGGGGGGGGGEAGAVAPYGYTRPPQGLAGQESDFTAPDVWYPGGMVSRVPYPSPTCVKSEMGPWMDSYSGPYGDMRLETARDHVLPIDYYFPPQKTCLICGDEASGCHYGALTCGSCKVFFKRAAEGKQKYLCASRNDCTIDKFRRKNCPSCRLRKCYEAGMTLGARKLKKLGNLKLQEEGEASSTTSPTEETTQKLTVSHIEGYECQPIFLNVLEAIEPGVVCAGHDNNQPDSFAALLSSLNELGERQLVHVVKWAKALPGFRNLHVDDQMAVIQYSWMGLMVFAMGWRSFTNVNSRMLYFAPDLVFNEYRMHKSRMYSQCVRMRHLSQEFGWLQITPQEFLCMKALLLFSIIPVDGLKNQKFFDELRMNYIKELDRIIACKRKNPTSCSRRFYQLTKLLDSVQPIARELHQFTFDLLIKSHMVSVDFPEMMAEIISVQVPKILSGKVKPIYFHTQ
Description: Antagonist activity at human androgen receptor expressed in LNAR cells assessed as inhibition of […]-induced luciferase activity by reporter gene assay. In kind it is functional, cell-based. (Reporter assays use an easily measured gene product as a stand-in for the process of interest.)

Series [2] is described as follows: Kinetic solubility in water. Particulars: read-out: Kinetic_solubility. In kind it is physicochemical.
The nature of series [3]: Drug metabolism in human liver microsomes assessed as CYP450-mediated oxidation. In kind it is ADME, Microsome. (In general: Microsomes from liver hold many membrane-bound enzymes, among them those of drug oxidation.)
A short description of series [4]: Plasma clearance in rat. In kind it is ADME, organism-based.
Series [5] in a line: Half life in rat. Format: ADME, organism-based. The following applies: in vivo.
A short description of series [6]: Oral bioavailability in rat. The following applies: in vivo. In kind it is ADME, organism-based.

The source made the active and inactive calls. No cut-off for these calls is given here.

Broadly, the clearance is the rate of elimination divided by the concentration. Higher therefore signals efficient removal. A word on the half-life: it is the time in which the quantity being followed falls by half. Low values mean rapid decline, high ones slow decline. For orientation: bioavailability means dose-corrected exposure relative to a reference, in per cent. Lower therefore signals poor availability.

Regarding `COc1nc(O[C@H]2C(C)(C)[C@H](NC(=O)c3cnc4ncccn34)C2(C)C)ccc1C#N`, the inhibition result in series [1] was “Active”.

Turning to `Cc1nc(O[C@H]2C(C)(C)[C@H](NC(=O)c3cnc4ccccn34)C2(C)C)ccc1C#N`, the solubility kinetic in series [2] was less than 0.4 µM. In addition, in series [3], the Drug metabolism result was “Active”.

Take `Cc1nc(O[C@H]2C(C)(C)[C@H](NC(=O)c3cnc4ncccn34)C2(C)C)ccc1C#N`: the clearance in series [4] is 11.6 mL/min/kg. The molecule further gave a half-life in series [5] of 3.6 h. In addition, in series [6], the bioavailability worked out at 31%.

Regarding `CC1(C)[C@H](NC(=O)c2cnc3ncccn23)C(C)(C)[C@H]1Oc1ccc(C#N)c(Cl)c1`, in series [1], the inhibition result is “Active”.

Turning to `CC1(C)[C@H](NC(=O)c2cnc3ncccn23)C(C)(C)[C@H]1Oc1ccc(C#N)c(C#N)c1`, in series [1], the inhibition entry is “Active”.
